Here are results for six compounds from ChEMBL document CHEMBL1142693, “Design, synthesis, and in vitro evaluation of dipeptide-based antibody minor groove binder conjugates” (J Med Chem, 2005).

pIC50: −log10 of the molar value.

The test system of test [1] is CAKI-1. The experiment in a line: Inhibitory concentration againstHuman Caki-1 Renal CellCarcinoma Cell Lines (CD70+) at 96th hour; n=1. It is filed as functional, cell-based. Particulars: Homo sapiens.
A short description of test [2]: Inhibitory concentration againstHuman Karpas 299 Anaplastic Large Cell Lymphoma (CD30+) at 96th hour; n=9. It is filed as functional, Homo sapiens.
Test [3] can be described thus: Inhibitory concentration againstHuman Karpas 299 Anaplastic Large Cell Lymphoma (CD30+) at 4th hour; n=1. The test is classed as functional, Homo sapiens.
Another test has as its system NCI-H69. The experiment in a line: Inhibitory concentration againstHuman cell lung carcinoma cell line NCI-H69; n=3. The test is classed as functional, cell-based, Homo sapiens.
Test [4] concerns CAKI-1. The experiment in a line: Inhibitory concentration againstHuman Caki-1 Renal CellCarcinoma Cell Lines (CD70+) at 4th hour; n=1. The test is classed as functional, cell-based. The note with it: Homo sapiens.
Test [5] can be described thus: Inhibitory concentration againstHuman cell lung carcinoma cell line NCI-H69/LX4; n=3. The test is classed as functional, cell-based, Homo sapiens.
Test [6] in a line: Inhibitory concentration againstHuman Karpas 299 Anaplastic Large Cell Lymphoma (CD30+) at 96th hour; n=1. It is filed as functional, Homo sapiens.
Test [7] deals with CAKI-1. The experiment in a line: Inhibitory concentration againstHuman Caki-1 Renal CellCarcinoma Cell Lines (CD70+) at 96th hour; n=14. The test is classed as functional, cell-based. Particulars: Homo sapiens.
Test [8] is described as follows: Inhibitory concentration againstHuman Karpas 299 Anaplastic Large Cell Lymphoma (CD30+) at 96th hour; n=39. The test is classed as functional, Homo sapiens.

The term pIC50 denotes the negative decadic logarithm of the IC50, by convention in mol/L. Read a low pIC50 as a high IC50. Take `COc1ccc(/C=C/C(=O)N2CC(CCl)c3c2cc(N)c2ccccc32)cc1` (stereo not given): the pIC50 was 9.17 in the test with CAKI-1 [1]; 8.93 in test [2]; 9.47 in [3]; 9.06 with NCI-H69 (Homo sapiens, NCI-H69); 9.23 in the test on CAKI-1 [4]; 8.54 in test [5].

With `COc1cc2c(c(OC)c1OC)NC(C(=O)N1CC(CCl)c3c1cc(O)c1ncccc31)C2` (stereo not given), the pIC50 with CAKI-1 [1] was 9.35; in test [6], 9.74; in test [3] it was 9.55; with CAKI-1 [4], 9.26.

In the case of `COc1ccc(/C=C/C(=O)N2CC(CCl)c3c2cc(NC(=O)C(CCCCN)NC(=O)C(NC(=O)CCOCCOCCOCCOCCNC(=O)CBr)C(C)C)c2ccccc32)cc1` (stereo not given), the pIC50 was 7.87 with NCI-H69 (Homo sapiens, NCI-H69) and 7.68 in test [5].

On to `COc1cccc2c1C(=O)c1c(O)c3c(c(O)c1C2=O)C[C@@](O)(C(=O)CO)C[C@@H]3O[C@H]1C[C@H](N)[C@H](O)[C@H](C)O1` [DOXORUBICIN], for which the negative logarithm of the IC50 (pIC50) in the test on NCI-H69 (Homo sapiens, NCI-H69) is 7.95; in test [5], 5.74.

For `CO[C@@]12[C@H](COC(N)=O)C3=C(C(=O)C(C)=C(N)C3=O)N1C[C@@H]1N[C@@H]12` [MITOMYCIN], the pIC50 is 6.28 in test [3], 7.40 in the test with CAKI-1 [7], 6.60 in the test with CAKI-1 [4] and 6.88 in test [8].

On to CISPLATIN, for which the pIC50 in the test with NCI-H69 (nci-h69) was 6.17; in [5], 5.55.
